Columns and labels:
NCI-N87 cells = assay: NCI-N87 Cell Growth Inhibition Test (MTT Assay); assay type: cell-based; details: Homo sapiens, 72 h incubation
Method: NCI-N87 Cell Growth Inhibition Test (MTT Assay)
1. Cell strains: NCI-N87 (human gastric carcinoma cell strains);
(§1) 1. A plate (10 cm) of cells in logarithmic growth phase normally cultured was collected;
2. The culture solution was sucked out. The plate was washed wtih 5 ml of PBS 1-2 times;
3. PBS was sucked out. 1.5 ml of 0.25% pancreatin was added to infiltrate the cells for 1 min;
4. The pancreatin was sucked out. The culture plate was placed in an incubator. Digestion was carried out for about 12 min at 37° C.;
(§2) 5. 4.5 ml of complete culture solution was added to the culture plate to stop the digestion. The cells were carefully scoured with micropipette (1 ml) to give a uniform cell suspension. The suspension was implanted into a 96-well cell culture disc by 17000 cells/100 μl per well. The culture plate was incubated overnight under 5% CO2 at 37° C. In day 2, 100 μl of culture solution comprising a compound was added in each well, and further incubated for 72 h under 5% CO2 at 37° C.
(§3) 6. The culture solution was sucked out;
(§4) 7. 100 μl of serum-free culture solution containing 0.5 mg/ml MTT was added in each well, and incubated for 3 h;
(§5) 8. The culture solution was carefully sucked out;
9. 100 μl of DMSO was added in each welland vibrated to dissolve;
(§6) 10. OD values were determined at 490 nM.
1. Calculation of Rrelative Inhibition Ratio The inhibition ratio of a compound on cell growth=(PC−n)/(PC−NC)×100%
(§7) IC50: Concentration of a compound where inhibition ratio was 50%. IC50 values were fitted with Origin7.5.

LoVo cells = assay: LoVo Cell Growth Inhibition Test (MTT Assay); assay type: cell-based; details: Homo sapiens, 72 h incubation
Method: LoVo Cell Growth Inhibition Test (MTT Assay)
1. Cell strains: LoVo (human intestinal cancer cell strains);
as §1
2. The culture solution was sucked out. The plate was washed with 5 ml of PBS 1-2 times;
(§8) 3. PBS was sucked out. 2 ml of 0.25% pancreatin was added to infiltrate the cells for 1 min;
4. The pancreatin was sucked out. The culture plate was placed in an incubator. Digestion was carried out for about 4 min at 37° C.;
as §2, with “5. 4” for “5. 4.5”, “added in” for “added to”, “culture plate” for “culture disc”, “by 3000-4000” for “by 17000”, “added into” for “added in”
as §3
7. 100 μl of serum-free culture solution containing 0.5 mg/ml MTT was added in each well, and incubated for 4 h;
as §5
(§9) 9. 100 μl of DMSO was added in each well and vibrated to dissolve;
as §6
(§10) 1. Calculation of Relative Inhibition Ratio The inhibition ratio of a compound on cell growth=(PC−n)/(PC−NC)×100%
as §7

BT-474 cells = assay: BT-474 Cell Growth Inhibition Test (SRB Assay); assay type: cell-based, human; details: 70 h incubation; for IC50 / inhibition at 1 µM: Homo sapiens; for Growth Inhibition Ratio (%) / inhibition at 1 µM: compound 1 μM; for inhibition at 1 µM: BT-474, 70 h, read-out: Growth Inhibition Ratio (%)
Summary of the method: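 Human breast tumour BT-474 cells (1×10^5/ml seeding, overnight) exposed to compound 70 h at 37 °C, 5% CO2; TCA-fixed, SRB-stained, dye dissolved in 10 mM Tris and OD read at 570 nm. Inhibition ratio = (PC−n)/(PC−NC)×100%; IC50 is the concentration giving 50% inhibition, from fitted curves.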

A549 cells = assay: A549 Cell Growth Inhibition Test (MTT Assay); assay type: cell-based; details: Homo sapiens, 72 h incubation
Method: A549 Cell Growth Inhibition Test (MTT Assay)
1. Cell strains: […] (human lung caner cell strains);
Culture medium: 90% F12K+10% FBS;
as §1
2. The culture solution was sucked out. Tthe plate was washed with 5 ml of PBS 1-2 times;
as §8
4. The pancreatin was sucked out. The culture plate was placed in an incubator. Digestion was carried out for about 2 min at 37° C.;
as §2, with “4” for “4.5”, “plate” for “disc”, “2500” for “17000”
as §3, §4, §5, §9, §6, §10, §7

SMILES | IC50 (NCI-N87 cells) [µM] | IC50 (LoVo cells) [µM] | IC50 (BT-474 cells) [µM] | Growth Inhibition Ratio (%) (BT-474 cells) | IC50 (A549 cells) [µM] | inhibition at 1 µM (BT-474 cells) [%]
CN(C)C/C=C/C(=O)Nc1cc2c(Nc3ccc(F)c(Cl)c3)c(C#N)cnc2cc1OC1CCOC1 (stereo not drawn) [Example 4, (E)-N-(4-(3-CHLORO-4-FLUOROPHENYLAMINO)-3-CYANO-7-(TETRAHYDROFURAN-3-YL-OXY)QUINOLIN-6-YL)-4-(DIMETHYLAMINO)-BUT-2-ENAMIDE] | 0.079 | 8 | 0.14 | 79 | 1.25 | –
C#Cc1cccc(Nc2c(C#N)cnc3cc(OC4CCOC4)c(NC(=O)/C=C/CN(C)C)cc23)c1 (stereo not drawn) [Example 5, (E)-N-(3-CYANO-4-(3-ETHYNYLPHENYLAMINO)-7-(TETRAHYDROFURAN-3-YL-OXY)QUINOLIN-6-YL)-4-(DIMETHYLAMINO)-BUT-2-ENAMIDE] | 0.022 | 8.57 | 0.041 | 85 | 1.3 | –
CN(C)C/C=C/C(=O)Nc1cc2c(Nc3cccc(Br)c3)c(C#N)cnc2cc1OC1CCOC1 (stereo not drawn) [Example 7, (E)-N-(4-(3-BROMOPHENYLAMINO)-3-CYANO-7-(TETRAHYDROFURAN-3-YL-OXY)QUINOLIN-6-YL)-4-(DIMETHYLAMINO)-BUT-2-ENAMIDE] | 0.113 | 7 | 0.309 | – | 3 | –
CN(C)C/C=C/C(=O)Nc1cc2c(Nc3ccc(OCc4ccccc4F)c(Cl)c3)c(C#N)cnc2cc1OC1CCOC1 (stereo not drawn) [Example 8, (E)-N-(4-(4-(2-FLUOROBENZYLOXY)-3-CHLOROPHENYLAMINO)-3-CYANO-7-(TETRAHYDROFURAN-3-YL-OXY)QUINOLIN-6-YL)-4-(DIMETHYLAMINO)-BUT-2-ENAMIDE] | 0.0056 | 1.7 | – | – | 1.7 | 79
CN(C)C/C=C/C(=O)Nc1cc2c(Nc3ccc(OCc4cccc(F)c4)c(Cl)c3)c(C#N)cnc2cc1OC1CCOC1 (stereo not drawn) [Example 9, (E)-N-(4-(4-(3-FLUOROBENZYLOXY)-3-CHLOROPHENYLAMINO)-3-CYANO-7-(TETRAHYDROFURAN-3-YL-OXY)QUINOLIN-6-YL)-4-(DIMETHYLAMINO)-BUT-2-ENAMIDE] | 0.0086 | 1.58 | 0.0052 | 78 | 1.7 | –
CN(C)C/C=C/C(=O)Nc1cc2c(Nc3ccc(OCc4ccccc4Cl)c(Cl)c3)c(C#N)cnc2cc1OC1CCOC1 (stereo not drawn) [Example 10, (E)-N-(4-(4-(2-CHLOROBENZYLOXY)-3-CHLOROPHENYLAMINO)-3-CYANO-7-(TETRAHYDROFURAN-3-YL-OXY)QUINOLIN-6-YL)-4-(DIMETHYLAMINO)-BUT-2-ENAMIDE] | 0.011 | 2 | 0.0099 | – | 2.3 | –
CN(C)C/C=C/C(=O)Nc1cc2c(Nc3ccc(OCc4cccc(Cl)c4)c(Cl)c3)c(C#N)cnc2cc1OC1CCOC1 (stereo not drawn) [Example 11, (E)-N-(4-(4-(3-CHLOROBENZYLOXY)-3-CHLOROPHENYLAMINO)-3-CYANO-7-(TETRAHYDROFURAN-3-YL-OXY)QUINOLIN-6-YL)-4-(DIMETHYLAMINO)-BUT-2-ENAMIDE] | 0.011 | 1.6 | 0.0079 | – | 1.6 | –
CN(C)C/C=C/C(=O)Nc1cc2c(Nc3ccc(OCc4ccccc4)c(Cl)c3)c(C#N)cnc2cc1OC1CCOC1 (stereo not drawn) [Example 12, (E)-N-(4-(4-(BENZYLOXY)-3-CHLOROPHENYLAMINO)-3-CYANO-7-(TETRAHYDROFURAN-3-YL-OXY)QUINOLIN-6-YL)-4-(DIMETHYLAMINO)-BUT-2-ENAMIDE] | 0.0061 | 2 | 0.008 | – | 2 | –
CN(C)C/C=C/C(=O)Nc1cc2c(Nc3ccc(OCc4ccccc4C#N)c(Cl)c3)c(C#N)cnc2cc1OC1CCOC1 (stereo not drawn) [Example 13, (E)-N-(4-(4-(2-CYANOBENZYLOXY)-3-CHLOROPHENYLAMINO)-3-CYANO-7-(TETRAHYDROFURAN-3-YL-OXY)QUINOLIN-6-YL)-4-(DIMETHYLAMINO)-BUT-2-ENAMIDE] | 0.0044 | 2 | 0.011 | – | 1.1 | 75
CN(C)C/C=C/C(=O)Nc1cc2c(Nc3ccc(OCc4cccc(C#N)c4)c(Cl)c3)c(C#N)cnc2cc1OC1CCOC1 (stereo not drawn) [Example 15, (E)-N-(4-(4-(3-CYANOBENZYLOXY)-3-CHLOROPHENYLAMINO)-3-CYANO-7-(TETRAHYDROFURAN-3-YL-OXY)QUINOLIN-6-YL)-4-(DIMETHYLAMINO)-BUT-2-ENAMIDE] | 0.0071 | 2.2 | 0.0081 | – | 3.9 | 71
CN(C)C/C=C/C(=O)Nc1cc2c(Nc3ccc(OCc4ccc(Cl)cc4)c(Cl)c3)c(C#N)cnc2cc1OC1CCOC1 (stereo not drawn) [Example 16, (E)-N-(4-(4-(4-CHLOROBENZYLOXY)-3-CHLOROPHENYLAMINO)-3-CYANO-7-(TETRAHYDROFURAN-3-YL-OXY)QUINOLIN-6-YL)-4-(DIMETHYLAMINO)-BUT-2-ENAMIDE] | 0.026 | 1.8 | 0.035 | – | 3.4 | 72
Cc1ccccc1COc1ccc(Nc2c(C#N)cnc3cc(OC4CCOC4)c(NC(=O)/C=C/CN(C)C)cc23)cc1Cl (stereo not drawn) [Example 17, (E)-N-(4-(4-(2-METHYLBENZYLOXY)-3-CHLOROPHENYLAMINO)-3-CYANO-7-(TETRAHYDROFURAN-3-YL-OXY)QUINOLIN-6-YL)-4-(DIMETHYLAMINO)-BUT-2-ENAMIDE] | 0.021 | 2 | 0.017 | – | 2.4 | –
C#Cc1cccc(Nc2c(C#N)cnc3cc(O[C@H]4CCOC4)c(NC(=O)/C=C/CN4CCOCC4)cc23)c1 [Example 145, (S,E)-N-(3-CYANO-4-(3-ETHYNYLPHENYLAMINO)-7-(TETRAHYDROFURAN-3-YL-OXY)QUINOLIN-6-YL)-4-(MORPHOLIN-4-YL)-BUT-2-ENAMIDE] | 0.346 | – | 0.654 | – | 6.7 | 75
C#Cc1cccc(Nc2c(C#N)cnc3cc(O[C@H]4CCOC4)c(NC(=O)/C=C/CNC(C)(C)C)cc23)c1 [Example 146, (S,E)-N-(3-CYANO-4-(3-ETHYNYLPHENYLAMINO)-7-(TETRAHYDROFURAN-3-YL-OXY)QUINOLIN-6-YL)-4-(TERT-BUTYLAIMINO)-BUT-2-ENAMIDE] | 0.189 | – | 0.236 | – | 7 | –
C#Cc1cccc(Nc2c(C#N)cnc3cc(O[C@H]4CCOC4)c(NC(=O)/C=C/CN(C)Cc4ccccc4)cc23)c1 [Example 149, (S,E)-N-(3-CYANO-4-(3-ETHYNYLPHENYLAMINO)-7-(TETRAHYDROFURAN-3-YL-OXY)QUINOLIN-6-YL)-4-(N-METHYLBENZYLAMINO)-BUT-2-ENAMIDE] | 0.111 | 2.3 | 0.212 | – | – | 79
N#Cc1cnc2cc(O[C@H]3CCOC3)c(NC(=O)/C=C/CN3CCOCC3)cc2c1Nc1ccc(OCc2ccccn2)c(Cl)c1 [Example 152, (S,E)-N-(4-(3-CHLORO-4-(PYRIDIN-2-YL-METHOXY)PHENYLAMINO)-3-CYANO-7-(TETRAHYDROFURAN-3-YL-OXY)QUINOLIN-6-YL)-4-(MORPHOLIN-4-YL)-BUT-2-ENAMIDE] | 0.02 | 6.6 | 0.0104 | – | – | 78

Reference: patent publication US9187458B2, “Cyanoquinoline derivatives” (Tianjin Hemay Bio-Tech Co., LTD., priority 2010, dated 2015)
